# Results reported in patent US12577247B2 (BUGWORKS RESEARCH, INC., priority 2021, dated 2026).
# Read-outs that look alike come from different tables or passages of the source.
# How the values were obtained:
# A2B receptor [1] = target: T1, A2B receptor (Homo sapiens, UniProt P29275); experiment: A2bR antagonism IC50, cAMP TR-FRET in HEK-293 cells, high concentration of adenosine (30 μM); conditions: A2BR IC50 (nM) (@30 μM Adenosine), HEK-293 cells expressing A2B receptor; agonist adenosine 30 μM; 2% HSA; inhibition of cAMP;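 note: compounds preincubated 10 min with cells, then adenosine stimulation 30 min at room temperature in buffer with Rolipram 100 µM and EHNA 30 µM, TR-FRET read after 1 h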
# T1 sequence (P29275 1-332): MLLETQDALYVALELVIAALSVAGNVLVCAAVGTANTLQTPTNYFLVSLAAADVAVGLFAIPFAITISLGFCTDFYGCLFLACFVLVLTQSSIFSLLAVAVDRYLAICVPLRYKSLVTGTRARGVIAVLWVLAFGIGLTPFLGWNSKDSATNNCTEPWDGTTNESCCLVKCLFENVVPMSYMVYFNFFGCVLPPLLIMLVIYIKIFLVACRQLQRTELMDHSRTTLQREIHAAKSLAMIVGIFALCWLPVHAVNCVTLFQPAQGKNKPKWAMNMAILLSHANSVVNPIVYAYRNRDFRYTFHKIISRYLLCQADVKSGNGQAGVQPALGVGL
# [2] = Plasma protein binding, equilibrium dialysis, dog; assay type: in vitro ADME; conditions: plasma (10% plasma, extrapolated to 100% plasma), Beagle plasma, 18 hours at 37° C.
# Experimental: (§1) Protein binding is measured using the equilibrium dialysis technique. Compound is added to 10% plasma giving a concentration of 10 μM and dialysed with isotonic buffer for 18 hours at 37° C. The plasma and buffer solutions are analysed using generic LC UV/MS and the first apparent binding constant for the compound derived. The binding constant is then used to determine the % free in 100% plasma
# (§2) The percentage of plasma bound/unbound fraction preparation was calculated as follows
# (§3) [formula] [formula] where, • Tc=Total plasma concentration was determined by the calculated concentration on the plasma side of the chamber • Fc=[…] was determined by the calculated concentration on the buffer side of the chamber • To=Total compound concentration determined before analysis.
# A2B receptor [3] = target: T1, A2B receptor; experiment: A2bR antagonism IC50, cAMP TR-FRET (Lance Ultra) in HEK-293 cells, NECA as agonist; assay type: cell-based; parameters: host or cells: HEK-293; conditions: HEK-293 cells expressing A2B receptor; agonist NECA 30 nM (EC90); inhibition of cAMP
# [4] = Metabolic stability and intrinsic clearance in human hepatocytes (with IVIVE); assay type: in vitro ADME; conditions: Human hepatocytes
# Experimental: (§4) The metabolic stability was expressed as the percentage of parent remaining is calculated from the peak area ratio of NCE remaining after incubation (tx) compared to the time zero (t0) incubation. The percentage of parent test compound remaining at each time point was calculated by comparing the peak area ratio of test compound after incubation (tx) with peak area of time zero (t0) incubation. Similarly, half-life (t½) was calculated using following equation:
# (§5) [formula] The intrinsic clearance (Clint) was calculated using the following equations:
# (§6) [formula] Scaling factors to represent […] million cells/gm liver and liver/kg body wt.
# Human hepatocytes = experiment: as above; assay type: in vitro ADME; conditions: Human; for Predicted CLh: IVIVE from hepatocyte CLint; for Hepatocyte Clint: Table 6 (IVIVE)
# Experimental: as §4, §5, §6
# Dog hepatocytes = experiment: Metabolic stability and intrinsic clearance in dog hepatocytes (with IVIVE); assay type: in vitro ADME; conditions: Dog; for Predicted CLh: IVIVE from hepatocyte CLint; for Hepatocyte Clint: Table 6 (IVIVE)
# Experimental: as §4, §5, §6
# [5] = as above; assay type: in vitro ADME; conditions: Dog hepatocytes
# Experimental: as §4, §5, §6
# A2A receptor = target: T2, A2A receptor (Homo sapiens, UniProt P29274); experiment: A2aR antagonism IC50, cAMP TR-FRET in HEK-293 cells, high concentration of adenosine (30 μM); assay type: cell-based; conditions: HEK-293 cells expressing A2A receptor; agonist adenosine 30 μM; 2% HSA; inhibition of cAMP; read-out: A2AR IC50 (nM) (@30 μM Adenosine);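 note: compounds added 10 min before adenosine, then 30 min stimulation at room temperature in buffer with 100 µM rolipram and 30 µM EHNA, signal read 1 h after detection reagents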
# T2 construct: host or cells: HEK-293
# T2 sequence (P29274 whole entry): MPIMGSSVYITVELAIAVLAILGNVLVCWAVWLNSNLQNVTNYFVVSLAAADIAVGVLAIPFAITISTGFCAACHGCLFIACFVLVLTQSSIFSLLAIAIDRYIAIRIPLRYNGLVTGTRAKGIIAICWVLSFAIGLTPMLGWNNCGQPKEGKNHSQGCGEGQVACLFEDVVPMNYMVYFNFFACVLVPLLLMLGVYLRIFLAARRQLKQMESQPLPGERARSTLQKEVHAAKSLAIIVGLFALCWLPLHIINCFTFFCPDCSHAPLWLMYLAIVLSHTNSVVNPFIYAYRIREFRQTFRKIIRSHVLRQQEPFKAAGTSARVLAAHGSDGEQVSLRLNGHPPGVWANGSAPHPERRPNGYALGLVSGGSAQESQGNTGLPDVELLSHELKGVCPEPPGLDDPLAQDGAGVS
# Experimental: A Time-Resolved Fluorescence Energy Transfer (TR-FRET) assay was used to show the inhibition of this cAMP production in HEK cells upon treatment with compounds of the Formula I of the present disclosure.
# HEK-293 cells expressing A2A receptor (#ES-011-C) or A2B receptor (#ES 013-C) were obtained from PerkinElmer. Cells were maintained in DMEM medium supplemented with 10% FBS and 200 μg/mL of G418 at 37° C. and 5% CO2. The cells were cultured in antibiotic free medium for a period of 16-20 hours prior to the assay. All subsequent steps of the assay are performed at room temperature (22-24° C.). […] About 1500 cells per well were pre-incubated for 10 minutes with the compounds of the present invention before adding the agonist Adenosine at a high concentration (30 μM) for a total stimulation time of 30 minutes. […] The assays were conducted in a stimulation buffer containing 1×DMEM, 5 mM HEPES, 2% Human serum albumin (HSA), 100 μM Rolipram and 30 μM erythro-9-(2-hydroxy-3-nonyl) adenine (EHNA). Serial dilutions of compounds were made in stimulation buffer to achieve a final concentration of high micromolar in a reaction volume of 10 μL. The total reaction volume was 10 μL (5 μL of cells, 2.5 μL of antagonist and 2.5 μL of agonist). […] The stimulation was ended, and the reaction completed by adding 5 μL of 4× Eu-cAMP tracer working solution and 5 μL of 4× ULight-anti-cAMP working solution. The TR FRET signal was measured after 1-hour incubation using a Tecan M1000 or a PerkinElmer Victor Nivo plate reader.
# [6] = Plasma protein binding, equilibrium dialysis, rat; assay type: in vitro ADME; conditions: plasma (10% plasma, extrapolated to 100% plasma), Sprague-Dawley plasma, 18 hours at 37° C.
# Experimental: as §1, §2, §3
# [7] = Pharmacokinetic study in dogs; assay type: in vivo, male Beagle dogs; conditions: for half-life / Vd / clearance / bioavailability / Cmax / Tmax: male, Beagle, plasma; for half-life: dog; for Vd: read-out: Vss; for Cmax / Tmax: po, p.o; for Cmax: read-out: Cmax (head Co*/); for Tmax: read-out: Tmax (head Tma)
# Experimental: Intravenous (i.v) and Oral formulations for pharmacokinetic (PK) studies was formulated in different vehicles and excipients to achieve the desirable solubility for intravenous and Oral routes of administration.
# Appropriate amount of the test compound was weighed and dissolved in required volume of the vehicles, followed by vertexing for a few seconds to dissolve the compound. Then the solution (or) suspension was sonicated at room temperature for 5 minutes to obtain a visually clear solution and or homogenous suspension. All the formulations were prepared freshly at room temperature before dosing.
# The dog PK study was carried out in male Beagle dogs of minimum 10 Kg body weight to estimate the plasma clearance, volume of distribution and terminal half-life, area under curve (AUC) and peak plasma concentration (Cmax), time of peak plasma concentration (Tmax) and absolute bioavailability (% F) following intravenous and oral routes of administration.
# Briefly, Example 13 and Example 39 was administered to a group of 3 non-naïve male dogs. The first set of 3 animals received an intravenous administration and following a washout period of 7 days, received an oral administration of Example 13. Following a further 7-day washout the animals will then repeat the intravenous and oral dosing regimen with an administration of Example 39. Blood samples (1 mL) was collected from the jugular vein by venepuncture into tubes containing K2EDTA anticoagulant at the following sampling times: • IV: Predose, 0.083 (5 min), 0.25, 0.5, 1, 2, 4, 8 and 24 hrs post-dose. • PO: Predose, 0.25, 0.5, 1, 2, 4, 8 and 24 hrs post-dose.
# Immediately following collection blood samples was inverted to ensure mixing with anticoagulant and placed on wet ice. As soon as practically possible samples were centrifuged (3000 rpm, 10 min, at 4° C.) and the resultant plasma decanted into appropriately labelled polypropylene tubes in 96-well plate format and stored in a freezer set to maintain a temperature of ≤−65° C., until analysis.
# Plasma samples were analysed for a fit-for purpose LC-MS/MS method with a lower limit of quantification. The pharmacokinetic parameters were calculated using the non-compartmental analysis tool of validated Phoenix® WinNonlin® software (Certara, USA version 8.4) with linear up and log down method for estimating AUC.
# All animals in intravenous (IV bolus) group were under fed state and animals in oral groups were fasted overnight (min 12 hr) before dose administration and food was provided 4 h post dose administration. All animals were received water ad libitum during the study period. The mean (±SD) pharmacokinetic parameters of Example 13, Example 122b & Example 39 following IV bolus and Oral dose administration in Mice/Rat and Dog is provided in Table-9.
# [8] = iv, 3 mg/kg, Dog, IV bolus, Table 6, read-out: T1/2 (IV bolus) (converted)
# [9] = iv, 3 mg/kg, Dog, i.v, 3 mg/kg, read-out: t1/2 (converted)
# [10] = oral, 10 mg/kg, Dog, Table 6, read-out: % F
# [11] = Dog, oral 10 mg/kg vs IV bolus 3 mg/kg, read-out: % F (bioavailability)
# [12] = 30 mg/kg, line stands under Dog
IC50 (A2B receptor [1]) [nM],"fraction unbound at 18 h, 10 µM [2]",IC50 (A2B receptor [3]) [nM],Hepatocyte Clint [4] [µL/min/1e6 cells],Predicted CLh (Human hepatocytes) [mL/min/kg],Hepatocyte Clint (Human hepatocytes) [μl/min/10^6],Predicted CLh (Dog hepatocytes) [mL/min/kg],Hepatocyte Clint (Dog hepatocytes) [μl/min/10^6],hepatocyte CLint at 0.5 μM [5] [µL/min/1e6 cells],IC50 (A2A receptor) [nM],"fraction unbound at 18 h, 10 µM [6]",Total systemic clearance relative to hepatic clearance ([7]; Dog),Volume of distribution relative to total body water (TBW) ([7]; Dog) [× TBW],"Total CLsystemic in plasma ([7]; Dog, Table 6) [mL/min/kg]","Co (head Co*/) ([7]; Dog, i.v, 3 mg/kg) [ng/m]","half-life [7, 8] [min]","half-life [7, 9] [min]","Vd ([7]; intravenous, Dog, Table 6) [L/kg]","clearance ([7]; iv, Dog, i.v, 3 mg/kg) [mL/min/kg]","Vd ([7]; iv, Dog, i.v, 3 mg/kg) [L/kg]",further results,Structure (SMILES)
2320,0.09,3.4,< 8.2,12,<8.2,17,9.5,9.5,300,0.0964,equivalent to that of hepatic clearance,3,33,2899,46.2,42,1.8,33 ± 3.6,1.75,"bioavailability [7, 10]: 25%; Cmax ([7]; Dog, 10 mg/kg): 839 ng/mL; Tmax ([7]; Dog, 10 mg/kg): 30 min; bioavailability [7, 11]: 25%","Cc1cccc(CCNc2nc3c(C)c(C)nn3c(N)c2C#N)n1 [Example 13, 7-amino-5-((2-(6-methylpyridin-2-yl)ethyl)amino)-2,3-dimethylpyrazolo[1,5-a]pyrimidine-6-carbonitrile]"
1830,0.156,0.94,< 8.2,12,<8.2,18,10.8,10.8,120,0.249,1.7 ×,3.3,52,1352,27,24,2,52 ± 8.7,2,"bioavailability [7, 10]: 25%; Cmax ([7]; Dog, 10 mg/kg): 618 ng/mL; Tmax ([7]; Dog, 10 mg/kg): 30 min; Cmax [7, 12]: 201 ng/mL; Tmax [7, 12]: 30 min; bioavailability [7, 11]: 25%","CCc1c(C)nn2c(N)c(C#N)c(NCCc3ccn(C4(CO)CC4)n3)nc12 [Example 39, 7-amino-3-ethyl-5-((2-(1-(1-(hydroxymethyl)cyclopropyl)-1H-pyrazol-3-yl)ethyl)amino)-2-methylpyrazolo[1,5-a] pyrimidine-6-carbonitrile]"
521,0.15,–,< 4.1,8.6,<4.1,10,<4.1,< 4.1,130,0.139,–,–,–,–,–,–,–,–,–,–,"CCc1c(C)nn2c(N)c(C#N)c(NCCc3ccn(C4COCC4CO)n3)nc12 (single isomer, unassigned; (-)) [Example 122b, (−)-7-amino-3-ethyl-5-((2-(1-(4-(hydroxymethyl)tetrahydrofuran-3-yl)-1H-pyrazol-3-yl)ethyl)amino)-2-methyl pyrazolo[1,5-a]pyrimidine-6-carbonitrile]"
